Measured values as given in DBAASP.
In brackets after ≈: the same amount, converted by molar mass. Several values for one entry are separate records, joined by “and”; a condition that tells them apart may be missing. Equal entries are not always repeated.

Legend:
Assay in all cases: ≥ marks a high value that may be exact or a test limit, other limits are often not marked, values filed in µg/mL are converted to µM
[1] = tested on: Candida albicans ATCC 2002
[2] = tested on: Shigella dysenteriae
[3] = tested on: Bacillus pumilus
[4] = tested on: Staphylococcus aureus ATCC 2592
[5] = tested on: Bacillus cereus
[6] = tested on: Acinetobacter calcoaceticus
[7] = tested on: Pseudomonas aeruginosa
[8] = tested on: Escherichia coli ATCC 25922
[9] = tested on: Klebsiella pneumoniae ATCC 13883
[10] = tested on: Klebsiella pneumoniae ATCC 43816
[11] = tested on: Staphylococcus aureus ATCC 8530
[12] = tested on: Pseudomonas aeruginosa ATCC 27853
[13] = tested on: Salmonella enterica subsp. enterica serovar Typhimurium LT2
[14] = tested on: Pseudomonas aeruginosa ATCC 9027
[15] = tested on: Escherichia coli W160-37
[16] = tested on: Staphylococcus aureus ATCC 29213
[17] = tested on: Enterococcus faecium ATCC 19434
[18] = tested on: Bacillus subtilis ATCC 6633
[19] = tested on: Enterococcus faecium NTCC 12697
[20] = tested on: Escherichia coli ATCC 8739
[21] = tested on: Staphylococcus aureus NCTC 12493
[22] = tested on: Enterococcus faecalis ATCC 19433
[23] = tested on: Proteus mirabilis CCUG 26767
[24] = tested on: Bacillus subtilis
[25] = tested on: Staphylococcus aureus NCTC 10788
[26] = tested on: Staphylococcus aureus ATCC 33591
[27] = tested on: Staphylococcus aureus ATCC 25923
[28] = tested on: Candida albicans ATCC 200955
[29] = tested on: Enterococcus faecium ATCC 700221
[30] = tested on: Bacillus subtilis 168
[31] = tested on: Candida parapsilosis Z150/119/IDE99
[32] = tested on: Candida krusei CK802/97
[33] = tested on: Candida glabrata CG196/98IDE
[34] = tested on: Staphylococcus aureus
[35] = tested on: Escherichia coli B
[36] = tested on: Bacillus subtilis IFO 3336
[37] = tested on: Escherichia coli IFO 3301
[38] = tested on: Streptococcus pyogenes
[39] = tested on: Proteus vulgaris
[40] = tested on: Staphylococcus epidermidis
[41] = tested on: Salmonella typhimurium
[42] = tested on: Escherichia coli

Work on CC[C@H](C)[C@H](NC(=O)[C@@H]1CCCN1C(=O)[C@H](Cc1ccccc1)NC(=O)[C@@H](N)Cc1ccccc1)C(=O)N[C@H](C(=O)NCC(=O)N[C@@H](CCCCN)C(=O)N[C@@H](CC(C)C)C(=O)N[C@@H](CC(C)C)C(=O)N[C@@H](Cc1ccccc1)C(=O)NCC(=O)N[C@@H](CC(C)C)C(=O)N[C@@H](Cc1ccccc1)C(=O)NCC(=O)N[C@@H](CC(C)C)C(=O)N[C@@H](CC(C)C)C(N)=O)C(C)C [FFPIVGKLLFGLFGLL] yielded an MIC [1] of 0.702 µM (≈ 1.25 µg/mL), an MIC [2] of 5.61 µM (≈ 9.99 µg/mL) and an MIC [3] of 1.4 µM (≈ 2.5 µg/mL). It also gave an MIC [4] of 1.4 µM (≈ 2.5 µg/mL), an MIC [5] of 16.8 µM (≈ 30 µg/mL) and an MIC [6] of 16.8 µM (≈ 30 µg/mL). It also gave an MIC [7] of 4.21 µM (≈ 7.5 µg/mL) and an MIC [8] of 2.81 µM (≈ 5 µg/mL).

Molecule CC[C@H](C)[C@H](NC(=O)[C@@H]1CCCN1C(=O)[C@H](CC(C)C)NC(=O)[C@@H](N)Cc1ccccc1)C(=O)N[C@H](C(=O)NCC(=O)N[C@@H](CCCCN)C(=O)N[C@@H](CC(C)C)C(=O)N[C@@H](CC(C)C)C(=O)N[C@@H](CO)C(=O)NCC(=O)N[C@@H](CC(C)C)C(=O)N[C@@H](CO)C(=O)NCC(=O)N[C@@H](CC(C)C)C(=O)N[C@@H](CO)C(N)=O)C(C)C [FLPIVGKLLSGLSGLS] has an MIC [1] of 1.56 µM (≈ 2.5 µg/mL), an MIC [2] of 12.5 µM (≈ 20 µg/mL) and an MIC [3] of 4.68 µM (≈ 7.5 µg/mL). For the same molecule, the MIC [4] was 1.56 µM (≈ 2.5 µg/mL), the MIC [5] was ≥ 46.8 µM and the MIC [6] was ≥ 37.5 µM. The MIC [7] was 1.56 µM (≈ 2.5 µg/mL) and the MIC [8] was 3.12 µM (≈ 5 µg/mL).

CC[C@H](C)[C@H](NC(=O)[C@H](CC(C)C)NC(=O)[C@@H]1CCCN1C(=O)[C@H](CC(C)C)NC(=O)[C@@H](N)Cc1ccccc1)C(=O)N[C@@H](CC(C)C)C(=O)N[C@@H](CCCN=C(N)N)C(=O)N[C@@H](CCCCN)C(=O)N[C@H](C(=O)N[C@H](C(=O)N[C@H](C(=O)N[C@@H](C)C(=O)N[C@@H](CC(C)C)C(N)=O)[C@@H](C)O)C(C)C)[C@@H](C)CC [FLPLILRKIVTAL] was tested, and the MIC [9] was ≥ 401 µM, the MIC [10] was ≥ 64 µM and the MIC [11] was ≥ 200 µM. The MIC [12] was > 401 µM, the MIC [13] was ≥ 200 µM and the MIC [14] was 128 µM (≈ 191 µg/mL). For the same molecule, the MIC [15] was ≥ 100 µM, the MIC [16] was 200 µM (≈ 300 µg/mL) and the MIC [17] was ≥ 50.1 µM. The MIC [18] was ≥ 200 µM, the MIC [19] was 16 µM (≈ 23.9 µg/mL) and the MIC [20] was ≥ 32 µM. For the same molecule, the MIC [21] was 4 µM (≈ 5.98 µg/mL), the MIC [22] was ≥ 100 µM and the MIC [8] was 200 µM (≈ 300 µg/mL). The MIC [23] was ≥ 401 µM, the MIC [24] was ≥ 50.1 µM and the MIC [25] was 2 µM (≈ 2.99 µg/mL).

For CC[C@H](C)[C@H](NC(=O)[C@H](Cc1c[nH]c2ccccc12)NC(=O)[C@H](CCCCN)NC(=O)[C@H](CC(C)C)NC(=O)[C@H](CC(C)C)NC(=O)CN)C(=O)N[C@@H](CCCCN)C(=O)N[C@H](C(=O)N[C@@H](CC(C)C)C(=O)N[C@@H](CC(C)C)C(N)=O)[C@@H](C)O [GLLKWIKTLL], the MIC [26] was 9.5 µM (≈ 11.2 µg/mL), the MIC [12] was 28.4 µM (≈ 33.6 µg/mL) and the MIC [27] was 1.69 µM (≈ 2 µg/mL). For the same molecule, the MIC [28] was 28.4 µM (≈ 33.6 µg/mL) and the MIC [29] was 9.5 µM (≈ 11.2 µg/mL).

With CC[C@H](C)[C@H](NC(=O)[C@H](CC(C)C)NC(=O)[C@H](Cc1cnc[nH]1)NC(=O)CNC(=O)[C@H](CC(C)C)NC(=O)[C@@H](NC(=O)[C@H](CCCCN)NC(=O)[C@H](CCCCN)NC(=O)[C@H](Cc1c[nH]c2ccccc12)NC(=O)[C@H](CCSC)NC(=O)CN)[C@@H](C)CC)C(=O)N[C@@H](CCCN=C(N)N)C(N)=O [GMWKKILGHLIR] the MIC [30] was 0.9 µM (≈ 1.31 µg/mL), the MIC [31] was 30 µM and 15 µM and the MIC [7] was 16.3 µM (≈ 23.6 µg/mL). For the same molecule, the MIC [32] was 30 µM and 15 µM and 20 µM, the MIC [33] was ≥ 40 µM and 25 µM and 30 µM and the MIC [34] was 8.4 µM (≈ 12.2 µg/mL). The MIC [35] was 1.8 µM (≈ 2.61 µg/mL).

Molecule NC(N)=NCCC[C@H](NC(=O)[C@H](Cc1cnc[nH]1)NC(=O)[C@H](CCCN=C(N)N)NC(=O)[C@H](Cc1cnc[nH]1)NC(=O)[C@H](CCCN=C(N)N)NC(=O)[C@H](Cc1cnc[nH]1)NC(=O)[C@H](CCCN=C(N)N)NC(=O)[C@H](Cc1cnc[nH]1)NC(=O)[C@H](CCCN=C(N)N)NC(=O)[C@H](Cc1cnc[nH]1)NC(=O)[C@@H](N)CCCN=C(N)N)C(=O)N[C@@H](Cc1cnc[nH]1)C(=O)O [RHRHRHRHRHRH] has an MIC [36] of 5.62 µM (≈ 10 µg/mL) and an MIC [37] of 5.62 µM (≈ 10 µg/mL).

In the case of NC(N)=NCCC[C@H](NC(=O)[C@H](Cc1cnc[nH]1)NC(=O)[C@@H](N)CCCN=C(N)N)C(=O)N[C@@H](Cc1cnc[nH]1)C(=O)O [RHRH], the MIC [36] is reported as ≥ 827 µM and the MIC [37] is reported as ≥ 827 µM.

For CC[C@H](C)[C@H](NC(=O)[C@H](Cc1ccc(O)cc1)NC(=O)[C@@H](NC(=O)[C@@H]1CCCN1C(=O)[C@H](CCCN=C(N)N)NC(=O)[C@H](CC(N)=O)NC(=O)[C@H](CC(N)=O)NC(=O)CNC(=O)[C@@H]1CCCN1C(=O)[C@H](CCC(=O)O)NC(=O)[C@H](C)NC(=O)[C@H](CCC(=O)O)NC(=O)[C@@H]1CCCN1C(=O)[C@H](CCC(=O)O)NC(=O)[C@H](C)NC(=O)[C@H](CCC(=O)O)NC(=O)[C@H](CCCN=C(N)N)NC(=O)[C@@H](N)CCCN=C(N)N)C(C)C)C(=O)N1CCC[C@H]1C(=O)N[C@@H](CCC(N)=O)C(=O)N1CCC[C@H]1C(=O)N[C@@H](CCCN=C(N)N)C(=O)N1CCC[C@H]1C(=O)N1CCC[C@H]1C(=O)N[C@@H](Cc1cnc[nH]1)C(=O)N1CCC[C@H]1C(=O)N[C@@H](CCCN=C(N)N)C(=O)N[C@@H](CC(C)C)C(=O)O [RREAEPEAEPGNNRPVYIPQPRPPHPRL], the MIC [38] was ≥ 64 µM, the MIC [39] was ≥ 64 µM and the MIC [7] was 64 µM (≈ 210 µg/mL). For the same molecule, the MIC [40] was ≥ 64 µM, the MIC [24] was ≥ 64 µM and the MIC [41] was 2 µM (≈ 6.55 µg/mL). It also gave an MIC [42] of 64 µM (≈ 210 µg/mL).
